Columns and labels:
vascular smooth muscle = assay: inhibition of calcium induced contraction of vascular smooth muscle; design: species or system male Sprague-Dawley rats; conditions: 10^-7 M; contraction induced by 1.0 mM calcium chloride in depolarized rat vascular smooth muscle
Method: The property may be observed in a test in which segments of vascular smooth muscle obtained from male Sprague-Dawley rats are suspended in physiological salt solution in a tissue bath instrumented for recording contractions. After the tissue has been equilibrated, washed in calcium-free physiological salt solution and then depolarized, 1.0 mM calcium chloride is re-added to induce contraction. After the contraction has reached a plateau, tissues are washed and a test compound or vehicle is added to determine the effect on a second contraction achieved by the above cyclic protocol. From measuring the initial contraction as well as the second contraction in the presence of the test compound, the extent of inhibition may be calculated.

α2 -adrenoreceptor = assay: neurogenic contractions of rat vas deferens (α2-adrenergic activity); conditions: electrically stimulated rat vas deferens
Method: (§1) In such determination, vas deferens of rat is suspended under tension between two platinum electrodes of an organ bath containing Tyrode's solution and contractile responses to electrical stimulation recorded. Agonist drug is added and EC50 values determined. After wash out, an antagonist drug is added and after a suitable period of contact with the tissue, the EC50 values of agonist in presence of antagonist are similarly determined.
(§2) These properties indicate suitability for use as an antidepressant.

α1 -adrenoreceptor = assay: neurogenic contractions of rat vas deferens (α1-adrenergic activity); conditions: electrically stimulated rat vas deferens
Method: as §1, §2

Structure (SMILES) | inhibition at 0.1 µM (vascular smooth muscle) | antagonism of the inhibition of contractions produced by clonidine (α2 -adrenoreceptor; agonist clonidine) | antagonism of the response to methoxamine (α1 -adrenoreceptor; agonist methoxamine) | effect on neurogenic contractions of the rat vas deferens when given alone (α1 -adrenoreceptor; compound alone) | effect on neurogenic contractions of the rat vas deferens (α2 -adrenoreceptor; antagonism by rauwolscine)
Brc1ccc2c(c1)C(N=C1NCCN1)c1ccccc1C=C2.I (stereo not drawn) [N-(2-Imidazolidinylidene)-3-bromo-5H-dibenzo[a,d]cyclohepten-5-amine Hydroiodide] | 40% | antagonized the inhibition of contractions produced by clonidine | antagonized the response to methoxamine with a similar order of potency | enhanced the neurogenic contractions of the rat vas deferens | –
C1=Cc2ccccc2C(N=C2NCCN2)c2ccccc21.I [N-(2-Imidazolidinylidene)-5H-dibenzo[a,d]cyclohepten-5-amine Hydroiodide] | 56% | – | – | – | inhibit neurogenic contractions of the rat vas deferens which was antagonized by rauwolscine

— patent publication US4590202A, “N-(2-imidazolidinylidene)-5H-dibenzo[a,d]cyclohepten-5-amine compounds and α2 -adrenergic antagonistic uses thereof” (Merck & Co., Inc., priority 1984, dated 1986)
